Assay results: a melting point compilation (Tetko et al.; mined from patent text by program, amines drawn as free bases though some values may be those of a salt)

| Compound | melting point [°C] |
| --- | --- |
| CC(=O)c1ccc2c(c1)C1(c3cc(C(C)=O)ccc3-2)c2cc(C(C)=O)ccc2-c2ccc(C(C)=O)cc21 | > 300 |
| CC(=Cc1ccc(O)cc1)c1ccc2c(c1)C(C)(C)CC2(C)C | 137 |
| CCOC(=O)C(SC)C(=O)Nc1ccc(Br)cc1C (centres undefined) | 85 to 88 |
| CC1(C)CC(N(CCO)CC(O)COc2ccc(C(C)(C)c3ccc(OCC(O)CN(CCO)C4CC(C)(C)NC(C)(C)C4)cc3)cc2)CC(C)(C)N1 (centres undefined) | 69 to 71 |
| CCOC(=O)COc1cccc2c1CCc1sc(SC(c3ccccc3)c3ccccc3)nc1-2 | 124 to 126 |
| Fc1cc(F)cc(C=Cc2cc3cc4ccccc4cc3s2)c1 | 265 to 267 |
| Cc1ccc(C2(Cn3cncn3)OCCO2)cc1Br | 121 |
| Clc1ccccc1N=Cc1ccc(-c2nc3ccccn3n2)cc1 | 135 to 136 |
| CN(C(=O)Nc1ccc(Cl)cc1)c1nnc(Br)s1 | 250 |
| Cc1c(Cl)ccc(C(=O)O)c1F | 198 |
| Cc1ccc(CN2CCSC2=O)cc1 | 49 to 50 |
| CC1(C)C2CCC1(C)C(O)(c1ccccc1)C2 (centres undefined) | 41 to 42 |
| CN1C(C)(C)CC(NC(=O)c2ccc(-c3nc4cc(Cl)c(Cl)cc4[nH]3)cc2)CC1(C)C | > 280 |
| COCC(COC)Oc1ccc(C#CC2(O)CN3CCC2CC3)cc1 (centres undefined) | 125 to 127 |
| COCCNC(=O)c1cc(-c2cccc3cc(Cc4cc(F)cc(Cl)c4)sc23)ccc1F | 84 to 85 |
| CCc1c(Cc2[nH]c(C(=O)OCc3ccccc3)c(C)c2CCCO)[nH]c(Cc2[nH]c(C(=O)OCc3ccccc3)c(C)c2CCCO)c1CC | 172 to 173 |
| CCOC(=O)CCNc1nc2c(C)cc(C)cc2n1Cc1nc(C)ccc1O | 180 |
| NCCCCCCCNC(=O)COCC(=O)NC1CCC2C3Cc4ccccc4C2(CCN3)C1 (centres undefined) | 83 to 85 |
| O=c1c2cc(Br)ccc2nc(C(S)c2ncnc3[nH]cnc23)n1-c1ccccc1Cl (centres undefined) | 212 to 242 |

| Compound | melting point [°C] |
| --- | --- |
| O=S(c1[nH]c(-c2ccc(Cl)cc2)c(Br)c1Br)C(F)(F)F (centres undefined) | 173 to 176 |
| Cc1ccc2c(c1)C=C(N1CCN(CCN3CCOC3=O)CC1)c1cc(Cl)ccc1S2 | 194 to 196 |
| CC1(C)OC(=O)C(=Cc2ccc(I)s2)C1=O | 182 to 184 |
| COc1ccc2c(c1)C(=O)c1c-2n(CCCBr)c(=O)c2cc([N+](=O)[O-])ccc12 | 282 to 284 |
| CC(C)c1ccc(-c2nc(=O)n(Cc3ccccc3)c3ccc(OCC#N)cc23)cc1 | 139 to 141 |
| COC(=O)c1cc2ccnc(NS(=O)(=O)c3cccs3)c2[nH]1 | 159 to 160 |
| S=c1[nH]c(=S)c2ccccc2[nH]1 | 234 to 237 |
| COc1ccc(CN2C(=O)C(N)C(=O)N(CC34CC5CC(CC(C5)C3)C4)c3ccccc32)cc1 (centres undefined) | 223 to 225 |
| CC(C)Cn1c(=O)n(C)c(=O)c2c(Sc3ccccn3)c(Cc3cccc4ccccc34)sc21 | 148 to 149 |
| O=Cc1nn(-c2c(Cl)cc(C(F)(F)F)cc2Cl)cc1SC(F)(F)F | 79 to 81 |
| CCOC(=O)c1ncc2[nH]c3cccc(OC4CCC4)c3c2c1COC | 196 to 197 |
| Clc1cnc(Oc2cccc(OCc3ccc(Cl)cc3Cl)c2)nc1 | 110 |
| O=C(C=CCl)CCCN1C(=O)c2ccccc2C1=O | 92 |
| CN(C)C(=O)Nc1cc(CNc2ccccc2C(=O)Nc2ccc3cn(C)nc3c2)ccn1 | 184 |
| COc1cc(O)c(C(=O)C=Cc2sccc2C)c(OC)c1 | 124 |
| Cc1ccc(N2CCN(CCCN3c4cccc5cccc(c45)S3(=O)=O)CC2)cc1 | 136 |
| CCCC1=C(c2cccc([N+](=O)[O-])c2)C(=NO)CC1 | 128 to 129 |
| NC1=NC(c2ccc(OC(F)(F)F)cc2)(c2cccc(-c3cccnc3F)c2)C2=NCCN12 (centres undefined) | 95 to 100 |
| O=C(N[C@H]1CC[C@H](CCN2CCN(c3nccc4c3CCO4)CC2)CC1)c1ccc2ncccc2c1 | 227 |

More lines, now with the values ahead:

| melting point [°C] | Compound |
| --- | --- |
| 159 to 160 | O=C1NC(=O)c2ccc(-c3ccc(CN4CCCCC4)cc3)cc2C1=CNc1ccc(CN2CCCCC2)cc1 |
| 192 | COc1ccc(C(=O)Nc2cccnc2Cl)c2c1oc1ccccc12 |
| 95 to 96 | CON(C)C(=O)Nc1cccc(OC(C)C(N)=S)c1 (centres undefined) |
| 185 | N#Cc1cc(F)c(Sc2nc[nH]n2)cc1F |
| 169 to 172 | Oc1c(Cl)cc(Cn2c(=S)sc3ccccc32)cc1Cl |
| 156 to 166 | COC(=O)c1ccc(CNC(=O)c2ccc(C(=O)NO)s2)cc1 |
| 77 to 79 | CCCCCCCCCCCCCCOc1cc(C(=O)OC)ccc1OC |
| 186 to 188 | COc1cc(N2CCC(N3CCN(C)CC3)CC2)ccc1Nc1ncc2ccc(-c3ccc(Cl)nc3)n2n1 |
| 117 | CC1CC(NC(=O)c2ccccc2SC#N)CC(C)(C)C1 (centres undefined) |
| 94 to 95.5 | Clc1ccc(COc2ccccc2C(=NOCc2ccccc2)n2ccnc2)cc1 |
| 175 to 177 | CCOC(=O)c1cccc2c1Nc1ccc(C(=O)c3ccccc3)cc1N2 |
| 153 to 155 | CCOC(=O)N1CCN(C(c2ccccc2)c2ccccc2)CC1(C)Cc1ccc2c(c1)OCCO2 (centres undefined) |
| 42 | O=C(Cl)c1cnc(Cl)nc1-c1ccccc1 |
| 208 to 209 | N#Cc1cc(C(=O)NNC(=O)c2occc2-c2ccc(OCc3ccccc3)cc2)ccc1O |
| 179 to 184 | Cc1c(Cc2ccccc2)c(=O)n2c(CN(C)Cc3ccccc3)c(-c3ccc(NC(=O)OC(C)(C)C)cc3)nc2n1Cc1c(F)cccc1F |
| 167 to 169 | CNc1cc(C(=O)O)ccc1C |

| melting point [°C] | Compound |
| --- | --- |
| 202 to 203 | CS(=O)(=O)CCCOc1ccc(/C=C/C(=O)O)c(Oc2ncc(C(F)(F)F)cc2Cl)c1 |
| 177 to 178 | CCOC(=O)/C=C/c1cn(-c2ccccc2)nc1OCc1ccc(OCc2nc(-c3ccco3)oc2C)c(OC)c1 |
| 95 to 96 | CC(O)c1cc(Br)ccc1N (centres undefined) |
| 138 to 140 | CCOC(=O)c1c(CBr)cccc1S(N)(=O)=O |
| 82 to 84 | CCCCCCCCCCCCCCCC(=O)N[C@@H](CSC(=O)CCCCCCCCCCCCCCC)C(=O)O |
| 225 to 227 | CNc1c(F)cc2c(=O)c(C(=O)O)cn(-c3cc(N)c(F)cc3F)c2c1OC |
| 270 to 271 | Cc1ccc(-c2c3n(c(=O)c4ncccc24)CCN(Cc2cc(C(F)(F)F)cc(C(F)(F)F)c2)C3=O)cc1 |
| 46 to 47 | CC=C(C#N)c1cccnc1 |
| 173 to 174 | Cc1nc2sc3ccccc3n2c1C(C)O (centres undefined) |
| 110 to 112 | Nc1nc(Cl)cc(NCCCCO)n1 |
| 250 | Cc1ccc(NC(=O)c2c(C)cccc2NC(=O)OC(C)(C)C)cc1 |
| 148 to 150 | Cn1c([N+](=O)[O-])cnc1C(N)=S |
| 194 to 197 | Cc1noc(-c2ccc(Cl)cc2)c1-c1ccc(S(N)(=O)=O)cc1 |
| 92 to 93 | Cc1ccc(S(=O)(=O)N(Cc2ccccc2)N=O)cc1 |
| 112 to 115 | COCCOc1ccc(COC(=O)NS(=O)(=O)c2ccc(Cl)cc2)c(Oc2ncc(C(F)(F)F)cc2Cl)c1 |
